Drawing on BindingDB's records for doi:10.1021/jm701311r (Georgia Institute of Technology, 2008), this text covers IC50 for 14 compounds.

Holding throughout (assay): AE Enzyme Inhibition Assay
Experiment [1] concerns the target T1, Clan CD, family C13, asparaginyl endopeptidase-like cysteine peptidase (Trichomonas vaginalis (strain ATCC PRA-98 / G3), UniProt A2DYT2).
T1 sequence (A2DYT2 whole entry): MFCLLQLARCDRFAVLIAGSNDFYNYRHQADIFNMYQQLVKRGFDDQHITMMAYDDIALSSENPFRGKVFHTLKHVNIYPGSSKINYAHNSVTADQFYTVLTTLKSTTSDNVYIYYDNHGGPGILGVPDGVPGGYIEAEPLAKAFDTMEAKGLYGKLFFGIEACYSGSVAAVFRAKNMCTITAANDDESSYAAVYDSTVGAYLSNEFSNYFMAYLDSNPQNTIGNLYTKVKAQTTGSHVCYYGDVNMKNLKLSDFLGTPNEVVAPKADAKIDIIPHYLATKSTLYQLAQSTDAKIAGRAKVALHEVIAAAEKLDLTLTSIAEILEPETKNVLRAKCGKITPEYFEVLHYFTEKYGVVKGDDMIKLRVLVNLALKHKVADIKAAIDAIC
The protocol: (§1) AE activity in the induction medium was measured with the substrate Cbz-Ala-Ala-Asn-AMC. In a black 96-well microtiter plate, aza-peptidyl inhibitors were added to the reaction buffer containing the activated enzyme, and allowed to incubate at room temperature for 20 min. Then, substrate Cbz- Ala-Ala-Asn-AMC was added and the reaction allowed proceeding for 20 min. Plotting the relative fluorescence units (RFU)/min against the inhibitor concentration (uM) permitted calculation of the IC50 value.

The target of experiment [2] is T2, Legumain (Ixodes ricinus, UniProt Q6PRC7).
T2 sequence (Q6PRC7 whole entry): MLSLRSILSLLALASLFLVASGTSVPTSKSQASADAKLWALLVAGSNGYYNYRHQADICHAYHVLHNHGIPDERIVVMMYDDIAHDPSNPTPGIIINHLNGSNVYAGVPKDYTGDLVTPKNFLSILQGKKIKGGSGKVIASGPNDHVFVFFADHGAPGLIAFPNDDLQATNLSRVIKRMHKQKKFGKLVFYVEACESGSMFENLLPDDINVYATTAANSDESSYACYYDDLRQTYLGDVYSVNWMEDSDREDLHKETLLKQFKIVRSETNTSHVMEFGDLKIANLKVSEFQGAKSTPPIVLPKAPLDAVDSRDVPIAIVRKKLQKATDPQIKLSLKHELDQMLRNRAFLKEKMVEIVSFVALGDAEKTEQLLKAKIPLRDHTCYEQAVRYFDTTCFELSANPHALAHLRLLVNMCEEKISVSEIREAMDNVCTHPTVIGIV
The following applies: 25 °C. As for the experimental part:
as §1

The target in experiment [3] is T3, Legumain (Schistosoma mansoni, UniProt Q9NFY9).
T3 sequence (Q9NFY9 whole entry): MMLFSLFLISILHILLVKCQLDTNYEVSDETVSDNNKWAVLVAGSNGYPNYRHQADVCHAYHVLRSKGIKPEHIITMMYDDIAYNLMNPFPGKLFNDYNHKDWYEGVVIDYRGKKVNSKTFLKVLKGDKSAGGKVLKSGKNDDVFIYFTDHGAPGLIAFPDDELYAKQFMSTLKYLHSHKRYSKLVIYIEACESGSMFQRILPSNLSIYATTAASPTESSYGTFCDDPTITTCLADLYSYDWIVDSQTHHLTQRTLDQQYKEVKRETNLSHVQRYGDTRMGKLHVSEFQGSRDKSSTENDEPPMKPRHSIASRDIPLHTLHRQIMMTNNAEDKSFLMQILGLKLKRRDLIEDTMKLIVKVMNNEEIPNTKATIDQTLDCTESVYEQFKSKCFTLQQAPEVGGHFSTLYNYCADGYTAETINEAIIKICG
As for the experimental part: as §1

Molecules are shown by their SMILES. Bounds are passed on as bounds.

The term IC50 denotes the concentration at which inhibition is half-maximal. A lower IC50 goes with higher potency. On to `C[C@H](NC(=O)OCc1ccccc1)C(=O)N[C@@H](C)C(=O)NN(CC(N)=O)C(=O)C=CC(=O)N1CCc2ccccc2C1` [benzyl N-[(1S)-1-{[(2S)-1-[(2E)-N-(carbamoylmethyl)-4-oxo-4-(1,2,3,4-tetrahydroisoquinolin-2-yl)but-2-enehydrazido]-1-oxopropan-2-yl]carbamoyl}ethyl]carbamate], for which the figures for the IC50 in experiment [1] (25 °C), in experiment [2] and in experiment [3] (25 °C) were 10 nM, 25 nM and 200 nM, respectively.

For the compound `C[C@H](NC(=O)OCc1ccccc1)C(=O)N[C@@H](C)C(=O)NN(CC(N)=O)C(=O)C=CC(=O)N(Cc1ccccc1)Cc1ccccc1` [benzyl N-[(1S)-1-{[(2S)-1-[(2E)-N,N-dibenzyl-3-[N-(carbamoylmethyl)hydrazido]prop-2-enamide]-1-oxopropan-2-yl]carbamoyl}ethyl]carbamate], the IC50 in experiment [1] (25 °C) is 10 nM; in experiment [2], 450 nM; in experiment [3] (pH 6.8, 22 °C) it was 45 nM.

Consider `C[C@H](NC(=O)OCc1ccccc1)C(=O)N[C@@H](C)C(=O)NN(CC(N)=O)C(=O)C=CC(=O)Nc1ccccc1` [benzyl N-[(1S)-1-{[(2S)-1-[(2E)-3-[N-(carbamoylmethyl)hydrazido]-N-phenylprop-2-enamide]-1-oxopropan-2-yl]carbamoyl}ethyl]carbamate], for which the half-inhibitory concentration (IC50) came to 20 nM in experiment [1] (pH 6.8, 22 °C); 10 nM in experiment [2]; 700 nM in experiment [3] (pH 6.8, 22 °C).

With `C[C@H](NC(=O)OCc1ccccc1)C(=O)N[C@@H](C)C(=O)NN(CC(N)=O)C(=O)C=CC(=O)NCCc1ccccc1` [benzyl N-[(1S)-1-{[(2S)-1-[(2E)-3-[N-(carbamoylmethyl)hydrazido]-N-(2-phenylethyl)prop-2-enamide]-1-oxopropan-2-yl]carbamoyl}ethyl]carbamate], the IC50 came to 10 nM in experiment [1] (pH 6.8, 22 °C); 350 nM in experiment [2]; 600 nM in experiment [3] (pH 6.8, 22 °C).

Consider `C[C@H](NC(=O)OCc1ccccc1)C(=O)N[C@@H](C)C(=O)NN(CC(N)=O)C(=O)C=CC(=O)N(Cc1ccccc1)Cc1cccc2ccccc12` [benzyl N-[(1S)-1-{[(2S)-1-[(2E)-N-benzyl-3-[N-(carbamoylmethyl)hydrazido]-N-(naphthalen-1-ylmethyl)prop-2-enamide]-1-oxopropan-2-yl]carbamoyl}ethyl]carbamate], for which the IC50 is less than 1 nM in experiment [1] (25 °C), 6 nM in experiment [2] and 62 nM in experiment [3] (25 °C).

Regarding `C[C@H](NC(=O)OCc1ccccc1)C(=O)N[C@@H](C)C(=O)NN(CC(N)=O)C(=O)C=Cc1cccnc1` [benzyl N-[(1S)-1-{[(2S)-1-[(2E)-N-(carbamoylmethyl)-3-(pyridin-3-yl)prop-2-enehydrazido]-1-oxopropan-2-yl]carbamoyl}ethyl]carbamate], the IC50 in experiment [1] (25 °C) was 8000 nM; in experiment [2] it was 15000 nM; in experiment [3] (pH 6.8, 22 °C), more than 2000 nM.

Take `CCOC(=O)C=CC(=O)N(CC(N)=O)NC(=O)[C@H](C)NC(=O)[C@H](C)NC(=O)CCCC[C@@H]1SC[C@@H]2NC(=O)N[C@@H]21` [ethyl (2E)-4-[(2S)-2-[(2S)-2-{5-[(3aS,4S,6aR)-2-oxo-hexahydro-1H-thieno[3,4-d]imidazolidin-4-yl]pentanamido}propanamido]-N'-(carbamoylmethyl)propanehydrazido]-4-oxobut-2-enoate]: the IC50 in experiment [1] (25 °C) is less than 10 nM; in experiment [2], 2.8 nM; in experiment [3] (25 °C) it was 10 nM.

For the compound `C[C@H](NC(=O)OCc1ccccc1)C(=O)N[C@@H](C)C(=O)NN(CC(N)=O)C(=O)C=CC(=O)N(C)c1ccccc1` [benzyl N-[(1S)-1-{[(2S)-1-[(2E)-3-[N-(carbamoylmethyl)hydrazido]-N-methyl-N-phenylprop-2-enamide]-1-oxopropan-2-yl]carbamoyl}ethyl]carbamate], the IC50 in experiment [1] (pH 6.8, 22 °C) turned out to be 5 nM; in experiment [2], 1.8 nM; in experiment [3] (pH 6.8, 22 °C) it was 60 nM.

On to `C[C@H](NC(=O)OCc1ccccc1)C(=O)N[C@@H](C)C(=O)NN(CC(N)=O)C(=O)C=CC(=O)NCc1ccccc1` [benzyl N-[(1S)-1-{[(2S)-1-[(2E)-N-benzyl-3-[N-(carbamoylmethyl)hydrazido]prop-2-enamide]-1-oxopropan-2-yl]carbamoyl}ethyl]carbamate], for which the IC50 in experiment [1] (pH 6.8, 22 °C) stood at 10 nM; in experiment [2] it was 200 nM; in experiment [3] (pH 6.8, 22 °C) it was 1000 nM.

Take `C[C@H](NC(=O)OCc1ccccc1)C(=O)N[C@@H](C)C(=O)NN(CC(N)=O)C(=O)C=CC(=O)N1CCCc2ccccc21` [benzyl N-[(1S)-1-{[(2S)-1-[(2E)-N-(carbamoylmethyl)-4-oxo-4-(1,2,3,4-tetrahydroquinolin-1-yl)but-2-enehydrazido]-1-oxopropan-2-yl]carbamoyl}ethyl]carbamate]: the results for the half-maximal inhibitory concentration (IC50) in experiment [1] (25 °C), in experiment [2] and in experiment [3] (25 °C) were 3.5 nM, 4 nM and 70 nM, respectively.

For the compound `C[C@H](NC(=O)OCc1ccccc1)C(=O)N[C@@H](C)C(=O)NN(CC(N)=O)C(=O)C=CC(=O)N1Cc2ccccc2C1` [benzyl N-[(1S)-1-{[(1S)-1-[N'-(carbamoylmethyl)-N'-[(2E)-4-(2,3-dihydro-1H-isoindol-2-yl)-4-oxobut-2-enoyl]hydrazinecarbonyl]ethyl]carbamoyl}ethyl]carbamate], the IC50 in experiment [1] (25 °C) was 20 nM; in experiment [2], 4.5 nM; in experiment [3] (25 °C), 300 nM.

`C[C@H](NC(=O)OCc1ccccc1)C(=O)N[C@@H](C)C(=O)NN(CC(N)=O)C(=O)C=CC(=O)N(Cc1ccccc1)Cc1ccc(F)cc1` [benzyl N-[(1S)-1-{[(2S)-1-[(2E)-N-benzyl-3-[N-(carbamoylmethyl)hydrazido]-N-[(4-fluorophenyl)methyl]prop-2-enamide]-1-oxopropan-2-yl]carbamoyl}ethyl]carbamate]: the IC50 is less than 1 nM in experiment [1] (25 °C), 700 nM in experiment [2] and 60 nM in experiment [3] (25 °C).

As for `CCCCN(CCCC)C(=O)C=CC(=O)N(CC(N)=O)NC(=O)[C@H](C)NC(=O)[C@H](C)NC(=O)OCc1ccccc1` [benzyl N-[(1S)-1-{[(1S)-1-[N'-(carbamoylmethyl)-N'-[(2E)-3-(dibutylcarbamoyl)prop-2-enoyl]hydrazinecarbonyl]ethyl]carbamoyl}ethyl]carbamate], the IC50 in experiment [1] (pH 6.8, 22 °C) stood at 1000 nM; in experiment [2], 100 nM; in experiment [3] (pH 6.8, 22 °C) it was 550 nM.

In the case of `C[C@H](NC(=O)OCc1ccccc1)C(=O)N[C@@H](C)C(=O)NN(CC(N)=O)C(=O)C=CC(=O)N(Cc1ccco1)Cc1ccco1` [benzyl N-[(1S)-1-{[(1S)-1-{N'-[(2E)-3-[bis(furan-2-ylmethyl)carbamoyl]prop-2-enoyl]-N'-(carbamoylmethyl)hydrazinecarbonyl}ethyl]carbamoyl}ethyl]carbamate], the IC50 in experiment [1] (25 °C) came out at 5000 nM; in experiment [2], 15000 nM; in experiment [3] (25 °C), 900 nM.
